Structures can show the parent of a compound that is named as a salt.

Format in all cases: cell-based
Assay [1] concerns HTT mRNA. The assay can be described thus: Splicing RT-qPCR assay (THP), Table 2A. The settings on record: Table 2A (THP); for AC50: AJ mRNA increase, read-out: HTT AJ (increase in alternative junction mRNA, AC50); for IC50: CJ mRNA decrease, read-out: HTT CJ (decrease in canonical junction mRNA, IC50).
Assay [2] deals with MYB mRNA. The experiment in a line: Splicing RT-qPCR assay (THP), Table 2A. The settings on record: Table 2A (THP); for AC50: AJ mRNA increase, read-out: MYB AJ (increase in alternative junction mRNA, AC50); for IC50: CJ mRNA decrease, read-out: MYB CJ (decrease in canonical junction mRNA, IC50).
Assay [3] has as its system HTT mRNA. The experiment in a line: Splicing RT-qPCR assay, canonical (CJ) and alternative (AJ) junction mRNA, K562 cells. The settings on record: Homo sapiens, K562.3 cells, 24 hours; for AC50: read-out: HTT AJ (AC50, increase in AJ mRNA); for IC50: read-out: HTT CJ (IC50, decrease in CJ mRNA). In a few lines: (§1)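 RT-qPCR read-out: CJ and AJ isoforms quantified by ΔCt against GAPDH or GUSB, normalized to DMSO, and converted to % response. Windows in 96-well format (50,000 cells/well) were 4.0 ΔCt for MYB-CJ and 3 for MYB-AJ, and 3.5 ΔCt for HTT-CJ and 9 for HTT-AJ. Cells were dosed for 24 h, top 10 uM.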
For orientation: Real-time PCR tracks product formation cycle by cycle.

In assay [4] the test system is MYB mRNA. Described as above. The settings on record: Homo sapiens, K562.3 cells, 24 hours; for AC50: read-out: MYB AJ (AC50, increase in AJ mRNA); for IC50: read-out: MYB CJ (IC50, decrease in CJ mRNA). In a few lines:
as §1

Turning to `COc1c(NC(=O)c2c(F)cc(N3CCC(NC4CC4)CC3)c3cn(C)nc23)cn2cc(C)nc2c1F` [Compound 207, 4-[4-(cyclopropylamino)-1-piperidyl]-6-fluoro-N-(8-fluoro-7-methoxy-2-methyl-imidazo[1,2-a]pyridin-6-yl)-2-methyl-indazole-7-carboxamide], the half-maximal activity concentration (AC50) in assay [1], in assay [2], in assay [3] and in assay [4] was less than 0.1 µM each time. Besides, the IC50 in assay [1], in assay [2], in assay [3] and in assay [4] was less than 0.1 µM throughout.
On to `COc1nc2c(C(=O)Nc3cc(F)c4nc(C)cn4c3)ccc(N3CCC(N)CC3)c2s1` [Compound 208, 7-(4-aminopiperidin-1-yl)-N-(8-fluoro-2-methylimidazo[1,2-a]pyridin-6-yl)-2-methoxybenzo[d]thiazole-4-carboxamide], for which the half-maximal activity concentration (AC50) – broadly, the midpoint of the concentration-response curve, whichever way the signal moves – is 0.1 to 1 µM in assay [1], less than 0.1 µM in assay [2], 0.1 to 1 µM in assay [3] and less than 0.1 µM in assay [4]. Moreover, the concentration for half-maximal inhibition (IC50) (commonly the concentration that inhibits the measured activity by half) is less than 0.1 µM in assay [1], less than 0.1 µM in assay [2], 0.1 to 1 µM in assay [3] and less than 0.1 µM in assay [4].
As to `Cc1cn2cc(NC(=O)c3ccc(N4CCC(NC5CC5)CC4)c4cc(C)nn34)cc(F)c2n1` [Compound 209, 4-[4-(cyclopropylamino)-1-piperidyl]-N-(8-fluoro-2-methyl-imidazo[1,2-a]pyridin-6-yl)-2-methyl-pyrazolo[1,5-a]pyridine-7-carboxamide], the concentration at half-maximal activity (AC50) is 0.1 to 1 µM in assay [1], less than 0.1 µM in assay [2], 0.1 to 1 µM in assay [3] and less than 0.1 µM in assay [4]. Besides, the IC50 is 0.1 to 1 µM in assay [1], less than 0.1 µM in assay [2], 0.1 to 1 µM in assay [3] and less than 0.1 µM in assay [4].
As to `Cc1cn2cc(NC(=O)c3ccc(N4CCC(NC5CC5)CC4)n4cc(C)nc34)cc(F)c2n1` [Compound 210, 5-(4-(cyclopropylamino)piperidin-1-yl)-N-(8-fluoro-2-methylimidazo[1,2-a]pyridin-6-yl)-2-methylimidazo[1,2-a]-pyridine-8-carboxamide], the half-maximal activity concentration (AC50) was 0.1 to 1 µM in assay [1], less than 0.1 µM in assay [2], 0.1 to 1 µM in assay [3] and 0.1 to 1 µM in assay [4]. In addition, the IC50 in assay [1] was less than 0.1 µM; in assay [2], less than 0.1 µM; in assay [3], 0.1 to 1 µM; in assay [4] it was less than 0.1 µM.
As for `Cc1cn2cc(NC(=O)c3ccc(N4C[C@@H](C)N[C@@H](C)C4)c4[nH]cnc34)cc(F)c2n1` [Compound 220, 7-[(3R,5S)-3,5-dimethylpiperazin-1-yl]-N-(8-fluoro-2-methyl-imidazo[1,2-a]pyridin-6-yl)-1H-1,3-benzodiazole-4-carboxamide], the concentration at half-maximal activity (AC50) was 1 to 10 µM in assay [1], 0.1 to 1 µM in assay [2], greater than 10 µM in assay [3] and 0.1 to 1 µM in assay [4]. Further, the half-inhibitory concentration (IC50) in assay [1] is greater than 10 µM; in assay [2], 0.1 to 1 µM; in assay [3] it was 1 to 10 µM; in assay [4], 0.1 to 1 µM.
In the case of `Cc1cn2cc(NC(=O)c3ccc(N4C[C@H](C)N[C@@H](C)C4)c4[nH]cnc34)cc(F)c2n1` [Compound 221, 7-[(3S,5S)-3,5-dimethylpiperazin-1-yl]-N-(8-fluoro-2-methylimidazo[1,2-a]pyridin-6-yl)-1H-1,3-benzodiazole-4-carboxamide], the concentration at half-maximal activity (AC50) in assay [1] is 1 to 10 µM; in assay [2], 0.1 to 1 µM; in assay [3] it was greater than 10 µM; in assay [4], 0.1 to 1 µM. The IC50 is 1 to 10 µM in assay [1], 0.1 to 1 µM in assay [2], greater than 10 µM in assay [3] and 0.1 to 1 µM in assay [4].
Take `Cc1cn2cc(NC(=O)c3ccc(N4C[C@@H](C)N[C@@H](C)C4)c4[nH]c(C)nc34)cc(F)c2n1` [Compound 225, 7-[(3R,5S)-3,5-dimethylpiperazin-1-yl]-N-(8-fluoro-2-methylimidazo[1,2-a]pyridin-6-yl)-2-methyl-1H-1,3-benzodiazole-4-carboxamide]: the AC50 was greater than 10 µM in assay [1], 1 to 10 µM in assay [2], 1 to 10 µM in assay [3] and 1 to 10 µM in assay [4]. Besides, the IC50 is 1 to 10 µM in assay [1], 0.1 to 1 µM in assay [2], 1 to 10 µM in assay [3] and 1 to 10 µM in assay [4].
As to `Cc1cn2nc(C(=O)Nc3ccc(N4C[C@@H](C)N[C@@H](C)C4)c4cc[nH]c34)cc(C)c2n1` [Compound 237, N-(4-[(3R,5S)-3,5-dimethylpiperazin-1-yl]-1H-indol-7-yl)-2,8-dimethylimidazo[1,2-b]pyridazine-6-carboxamide], the AC50 in assay [1], in assay [2], in assay [3] and in assay [4] was 1 to 10 µM throughout. Also, the half-maximal inhibitory concentration (IC50) in assay [1], in assay [2], in assay [3] and in assay [4] was 1 to 10 µM in each case.
On to `Cc1cn2cc(NC(=O)c3ccc(N4C[C@H](C)N[C@@H](C)C4)c4[nH]nnc34)cc(F)c2n1` [Compound 242, 7-[(3S,5S)-3,5-dimethylpiperazin-1-yl]-N-(8-fluoro-2-methyl-imidazo[1,2-a]pyridin-6-yl)-1H-benzotriazole-4-carboxamide], for which the half-maximal activity concentration (AC50) in assay [1], in assay [2], in assay [3] and in assay [4] was greater than 10 µM in each case. The IC50 in assay [1], in assay [2], in assay [3] and in assay [4] was greater than 10 µM in each case.
In the case of `Cc1cn2cc(NC(=O)c3ccc(N4C[C@@H](C)N[C@@H](C)C4)c4[nH]nnc34)cc(F)c2n1` [Compound 243, 7-((3S,5R)-3,5-dimethylpiperazin-1-yl)-N-(8-fluoro-2-methylimidazo[1,2-a]pyridin-6-yl)-1H-benzo[d][1,2,3]-triazole-4-carboxamide hydrochloride], the AC50 in assay [1], in assay [2], in assay [3] and in assay [4] was greater than 10 µM in each case. For the same compound, the IC50 in assay [1], in assay [2], in assay [3] and in assay [4] was greater than 10 µM in each case.
Take `Cc1cn2cc(NC(=O)c3c(F)cc(N4CCNCC4)c4occc34)cc(F)c2n1` [Compound 247, 5-fluoro-N-(8-fluoro-2-methylimidazo-[1,2-a]pyridin-6-yl)-7-piperazin-1-yl-benzofuran-4-carboxamide]: the AC50 in assay [1], in assay [2], in assay [3] and in assay [4] was greater than 10 µM in each case. Further, the half-maximal inhibitory concentration (IC50) in assay [1], in assay [2], in assay [3] and in assay [4] was greater than 10 µM throughout.
With `Cc1cn2cc(NC(=O)c3ccc(N4CCNC(C(F)(F)F)C4)c4cn(C)nc34)cc(F)c2n1` (stereo not drawn) [Compound 248, N-(8-fluoro-2-methyl-imidazo[1,2-a]-pyridin-6-yl)-2-methyl-4-[3-(trifluoro-methyl)piperazin-1-yl]indazole-7-carboxamide], the AC50 in assay [1] was greater than 10 µM; in assay [2], 1 to 10 µM; in assay [3] it was greater than 10 µM; in assay [4], 1 to 10 µM. Besides, the IC50 in assay [1] was greater than 10 µM; in assay [2] it was greater than 10 µM; in assay [3] it was greater than 10 µM; in assay [4], 1 to 10 µM.
Take `Cc1cn2cc(NC(=O)c3ccc(N4CCNC(C(F)F)C4)c4cn(C)nc34)cc(F)c2n1` (stereo not drawn) [Compound 249, 4-[3-(difluoromethyl)piperazin-1-yl]-N-(8-fluoro-2-methylimidazo[1,2-a]pyridin-6-yl)-2-methyl-indazole-7-carboxamide]: the concentration at half-maximal activity (AC50) is greater than 10 µM in assay [1], 0.1 to 1 µM in assay [2], 1 to 10 µM in assay [3] and 0.1 to 1 µM in assay [4]. Besides, the half-inhibitory concentration (IC50) was 1 to 10 µM in assay [1], 0.1 to 1 µM in assay [2], 1 to 10 µM in assay [3] and 0.1 to 1 µM in assay [4].
For `COc1cc(N2CCNCC2)c2cn(C)nc2c1C(=O)Nc1cc(F)c2nc(C)cn2c1` [Compound 250, N-(8-fluoro-2-methyl-imidazo[1,2-a]pyridin-6-yl)-6-methoxy-2-methyl-4-piperazin-1-yl-indazole-7-carboxamide], the AC50 is greater than 10 µM in assay [1], 1 to 10 µM in assay [2], greater than 10 µM in assay [3] and greater than 10 µM in assay [4]. The half-maximal inhibitory concentration (IC50) is greater than 10 µM in assay [1], 1 to 10 µM in assay [2], greater than 10 µM in assay [3] and greater than 10 µM in assay [4].
With `Cc1cn2cc(NC(=O)c3ccc(N4CCNCC4=O)c4cn(C)nc34)cc(F)c2n1` [Compound 251, N-(8-fluoro-2-methylimidazo[1,2-a]-pyridin-6-yl)-2-methyl-4-(2-oxopiperazin-1-yl)-2H-indazole-7-carboxamide 2,2,2-trifluoroacetate], the half-maximal activity concentration (AC50) in assay [1], in assay [2], in assay [3] and in assay [4] was greater than 10 µM each time. Also, the concentration for half-maximal inhibition (IC50) in assay [1], in assay [2], in assay [3] and in assay [4] was greater than 10 µM in each case.

The values above are taken from US20260285853A1, “COMPOUNDS AND METHODS FOR MODULATING SPLICING” (REMIX THERAPEUTICS INC., priority 2023, published 2026).
